≈ marks a conversion by molar mass, not a printed value.
These molecules were tested against CYP3A4 (Homo sapiens (Human), UniProt P08684) (assay: Inhibition of liver cytochrome P450 enzymes (pooled human liver microsomes)). Details: not given.
Format: in vitro ADME
Procedure: A. […] Solutions of each test compound were separately prepared at concentrations of 20000, 6000, 2000, 600, 200, and 60 μM by serial dilution with DMSO:MeCN (50:50 v/v). The individual test compound solutions were then diluted 20-fold with DMSO:MeCN:deionized water (5:5:180 v/v/v) to concentrations of 1000, 300, 100, 30, 10, and 3 μM. […] The mixed inhibitor solutions were then diluted 20-fold with DMSO:MeCN:deionized water (5:5:180 v/v/v) to concentrations of 300, 100, 30, 10, 3, 1, 0.3, and 0.1 μM. The percent of organic solvent attributable to the test compound or inhibitor mixture in the final reaction mixture was 2% v/v. Pooled human liver microsome suspension (20 mg/mL) was diluted with phosphate buffer to obtain a 5 mg/mL suspension. A solution of NADPH was prepared in phosphate buffer at a concentration of 5 mM. Separate stock solutions of each substrate were prepared in DMSO:MeCN (50:50 v/v), mixed, and diluted in phosphate buffer to obtain a single solution containing each substrate at five times its experimentally determined Km concentration. […] A portion of the supernatant was analyzed by gradient reverse-phase HPLC with detection by electrospray ionization triple quadrupole mass spectrometry in the positive ion mode. Data was fitted to sigmoid dose-response curves and the inhibitory potency of each test compound was determined as its IC50 value.

Sequence of CYP3A4 (P08684 whole entry): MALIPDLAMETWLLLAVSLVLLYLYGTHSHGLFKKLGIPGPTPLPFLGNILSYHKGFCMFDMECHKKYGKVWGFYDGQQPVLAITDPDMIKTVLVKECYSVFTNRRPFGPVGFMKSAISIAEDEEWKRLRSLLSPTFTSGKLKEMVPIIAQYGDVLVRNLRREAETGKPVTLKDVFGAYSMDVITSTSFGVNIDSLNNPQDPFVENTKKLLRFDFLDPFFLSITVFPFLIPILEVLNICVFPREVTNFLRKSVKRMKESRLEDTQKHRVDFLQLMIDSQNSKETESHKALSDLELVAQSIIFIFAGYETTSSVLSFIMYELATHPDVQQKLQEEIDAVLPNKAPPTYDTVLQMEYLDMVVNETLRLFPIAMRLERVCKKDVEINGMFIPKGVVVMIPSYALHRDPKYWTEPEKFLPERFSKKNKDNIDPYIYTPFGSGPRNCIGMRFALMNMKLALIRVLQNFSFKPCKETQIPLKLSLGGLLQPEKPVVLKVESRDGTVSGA

| IC50 [µM] | Structure (SMILES) |
| --- | --- |
| > 60 | OC(Cn1cnnn1)(c1ccc(F)cc1F)C(F)(F)c1ccc(-c2ccc(C(F)(F)F)cc2)cn1 (centres unmarked) [Example 2, 2-(2,4-Difluorophenyl)-1,1-difluoro-3-(1H-tetrazol-1-yl)-1-(5-(4-(trifluoromethyl)phenyl)pyridin-2-yl) propan-2-ol] |

Each molecule was assayed on C. albicans (assay: Minimum Inhibitory Concentration (MIC), CLSI M27-A2). Details: Candida albicans, 48 h, about 50% growth reduction, approximately 48 h at 35 °C, read-out: Candida MIC.
Format: cell-based
Procedure: A. Minimum Inhibitory Concentration (MIC) Compounds were assessed for their ability to inhibit the growth of common strains of fungus, C. albicans using a standardized procedure (CLSI M27-A2). Stock solutions of the test compounds and standards were prepared in DMSO at 1,600 μg/mL (C. albicans). Eleven, serial, one-half dilutions of compounds were prepared in 96-well plates in RPMI+MOPS. The assay concentration ranges were 8-0.001 μg/mL (C. albicans). Cell suspensions of C. albicans were prepared and added to each well at concentrations of approximately 3.7×10^3 colony-forming-units per milliliter (cfu/mL). All testing was in duplicate. The inoculated plates were incubated for approximately 48 h at 35±1° C. At the completion of incubation the wells of each plate were evaluated visually for the presence of fungal growth. […] For QC purposes C. krusei isolate ATCC 6258 (4.0×10^3 cfu/mL) was included in the VOR assay.

| MIC [µg/mL] | Structure (SMILES) |
| --- | --- |
| ≤ 0.016 | OC(Cn1cnnn1)(c1ccc(F)cc1F)C(F)(F)c1ccc(-c2ccc(C(F)(F)F)cc2)cn1 (centres unmarked) [Example 2, 2-(2,4-Difluorophenyl)-1,1-difluoro-3-(1H-tetrazol-1-yl)-1-(5-(4-(trifluoromethyl)phenyl)pyridin-2-yl) propan-2-ol] |
| 0.5 (≈ 1.63 µM) | OC(Cn1cncn1)(Cn1cncn1)c1ccc(F)cc1F [Fluconazole, reference compound] |
| 0.016 (≈ 0.0458 µM) | C[C@@H](c1ncncc1F)[C@](O)(Cn1cncn1)c1ccc(F)cc1F [Voriconazole, reference compound] |

Same assay, conditions: Candida albicans, rating scale, read-out: Candida MIC Rating

| MIC [µg/mL] | Structure (SMILES) |
| --- | --- |
| < 0.5 | OC(Cn1cnnn1)(c1ccc(F)cc1F)C(F)(F)c1ccc(-c2ccc(C(F)(F)F)cc2)cn1 (centres unmarked) [Example 2, 2-(2,4-Difluorophenyl)-1,1-difluoro-3-(1H-tetrazol-1-yl)-1-(5-(4-(trifluoromethyl)phenyl)pyridin-2-yl) propan-2-ol] |
| < 0.5 | OC(Cn1cnnn1)(c1ccc(F)cc1F)C(F)(F)c1ccc(-c2ccc(OC(F)F)cc2)cn1 (centres unmarked) [Example 38, 1-(5-(4-(Difluoromethoxy)phenyl)pyridin-2-yl)-2-(2,4-difluorophenyl)-1,1-difluoro-3-(1H-tetrazol-1-yl)propan-2-ol] |
| < 0.5 | OC(Cn1cnnn1)(c1ccc(F)cc1F)C(F)(F)c1ccc(-c2ccc(SC(F)F)cc2)cn1 (centres unmarked) [Example 40] |
| < 0.5 | OC(Cn1cnnn1)(c1ccc(F)cc1F)C(F)(F)c1ccc(-c2ccc(CC(F)(F)F)cc2)cn1 (centres unmarked) [Example 41, 2-(2,4-Difluorophenyl)-1,1-difluoro-3-(1H-tetrazol-1-yl)-1-(5-(4-(2,2,2-trifluoroethyl)phenyl)pyridin-2-yl)propan-2-ol] |
| < 0.5 | CNC(=O)c1ccc(-c2ccc(C(F)(F)C(O)(Cn3cnnn3)c3ccc(F)cc3F)nc2)cc1 (centres unmarked) [Example 42, 4-(6-(2-(2,4-Difluorophenyl)-1,1-difluoro-2-hydroxy-3-(1H-tetrazol-1-yl)propyl)pyridin-3-yl)-N-methylbenzamide] |
| < 0.5 | CCOC(=O)C(F)(F)Oc1ccc(-c2ccc(C(F)(F)C(O)(Cn3cnnn3)c3ccc(F)cc3F)nc2)cc1 (centres unmarked) [Example 43, Ethyl 2-(4-(6-(2-(2,4-difluorophenyl)-1,1-difluoro-2-hydroxy-3-(1H-tetrazol-1-yl)propyl)pyridin-3-yl)phenoxy)-2,2-difluoroacetate] |
| < 0.5 | OC(Cn1cnnn1)(c1ccc(F)cc1F)C(F)(F)c1ccc(-c2ccc(OCCC(F)(F)F)cc2)cn1 (centres unmarked) [Example 44, 2-(2,4-Difluorophenyl)-1,1-difluoro-3-(1H-tetrazol-1-yl)-1-(5-(4-(3,3,3-trifluoropropoxy)phenyl)pyridin-2-yl)propan-2-ol] |
| < 0.5 | OC(Cn1cnnn1)(c1ccc(F)cc1F)C(F)(F)c1ccc(-c2ccc(SCC(F)(F)F)cc2)cn1 (centres unmarked) [Example 45, 2-(2,4-Difluorophenyl)-1,1-difluoro-3-(1H-tetrazol-1-yl)-1-(5-(4-((2,2,2-trifluoroethyl)thio)phenyl)pyridin-2-yl)propan-2-ol] |
| 0.5 to 1.5 (≈ 0.982 to 2.94 µM) | CC(F)(c1ccc(-c2ccc(OC(F)(F)F)cc2)cn1)C(O)(Cn1cnnn1)c1ccc(F)cc1F (centres unmarked) [Example 46, 2-(2,4-Difluorophenyl)-3-fluoro-1-(1H-tetrazol-1-yl)-3-(5-(4-(trifluoromethoxy)phenyl)-pyridin-2-yl)butan-2-ol] |
| 1.5 to 4 (≈ 3.38 to 9.02 µM) | CC(F)(c1ccc(-c2ccc(F)cc2)cn1)C(O)(Cn1ncnn1)c1ccc(F)cc1F (centres unmarked) [Example 48, 2-(2,4-Difluorophenyl)-3-fluoro-3-(5-(4-fluorophenyl)pyridin-2-yl)-1-(2H-tetrazol-2-yl)butan-2-ol] |

Same assay, conditions: rating scale

| Candida MIC Rating | Structure (SMILES) |
| --- | --- |
| C (>1.5-4) | OC(Cn1cnnn1)(c1ccc(F)cc1F)C(F)(F)c1ccc(-c2ccc(OCC(F)(F)F)cc2)cn1 (centres unmarked) [Example 39, 2-(2,4-Difluorophenyl)-1,1-difluoro-3-(1H-tetrazol-1-yl)-1-(5-(4-(2,2,2-trifluoroethoxy)phenyl)pyridin-2-yl)propan-2-ol] |
| A (≤0.5) | CC(F)(c1ccc(-c2ccc(OC(F)(F)F)cc2)cn1)C(O)(Cn1cnnn1)c1ccc(F)cc1F (centres unmarked) [Example 47, 2-(2,4-Difluorophenyl)-3-fluoro-1-(1H-tetrazol-1-yl)-3-(5-(4-(trifluoromethoxy)phenyl)-pyridin-2-yl)butan-2-ol] |
| A (≤0.5) | CC(F)(c1ccc(-c2ccc(F)cc2)cn1)C(O)(Cn1cnnn1)c1ccc(F)cc1F (centres unmarked) [Example 51, 2-(2,4-Difluorophenyl)-3-fluoro-3-(5-(4-fluorophenyl)pyridin-2-yl)-1-(1H-tetrazol-1-yl)butan-2-ol] |
| C (>1.5-4) | CC(F)(c1ccc(-c2ccc(C(F)(F)F)cc2)cn1)C(O)(Cn1cnnn1)c1ccc(F)cc1F (centres unmarked) [Example 52, 2-(2,4-Difluorophenyl)-3-fluoro-1-(1H-tetrazol-1-yl)-3-(5-(4-(trifluoromethyl)phenyl)pyridin-2-yl)butan-2-ol] |
| B (>0.5-1.5) | CC(F)(c1ccc(-c2ccc(C(F)(F)F)cc2)cn1)C(O)(Cn1cnnn1)c1ccc(F)cc1F (centres unmarked) [Example 53, 2-(2,4-Difluorophenyl)-3-fluoro-1-(1H-tetrazol-1-yl)-3-(5-(4-(trifluoromethyl)phenyl)pyridin-2-yl)butan-2-ol] |
| C (>1.5-4) | CC(F)(c1ccc(-c2ccc(Cl)cc2)cn1)C(O)(Cn1cnnn1)c1ccc(F)cc1F (centres unmarked) [Example 54, 3-(5-(4-Chlorophenyl)pyridin-2-yl)-2-(2,4-difluorophenyl)-3-fluoro-1-(1H-tetrazol-1-yl)butan-2-ol] |
| A (≤0.5) | CC(F)(c1ccc(-c2ccc(Cl)cc2)cn1)C(O)(Cn1cnnn1)c1ccc(F)cc1F (centres unmarked) [Example 55, 3-(5-(4-Chlorophenyl)pyridin-2-yl)-2-(2,4-difluorophenyl)-3-fluoro-1-(1H-tetrazol-1-yl)butan-2-ol] |
| C (>1.5-4) | CC(F)(c1ccc(-c2ccc(OCC(F)(F)F)cc2)cn1)C(O)(Cn1cnnn1)c1ccc(F)cc1F (centres unmarked) [Example 56, 2-(2,4-Difluorophenyl)-3-fluoro-1-(1H-tetrazol-1-yl)-3-(5-(4-(2,2,2-trifluoroethoxy)phenyl)pyridin-2-yl)butan-2-ol] |
| A (≤0.5) | CC(F)(c1ccc(-c2ccc(OCC(F)(F)F)cc2)cn1)C(O)(Cn1cnnn1)c1ccc(F)cc1F (centres unmarked) [Example 57, 2-(2,4-Difluorophenyl)-3-fluoro-1-(1H-tetrazol-1-yl)-3-(5-(4-(2,2,2-trifluoroethoxy)phenyl)pyridin-2-yl)butan-2-ol] |
